# pIC50: −log10 of the molar value. Like-named read-outs stand apart in the source and are kept apart here.
# Legend:
# Type in all cases: cell-based
# [1] = target: T1, BRD4-NUT (Homo sapiens, UniProt O60885+Q86Y26); assay: BRD4-NUT protein degradation by western blotting in RPMI2650 cells (24 h treatment)
# T1 construct: endogenous in cells; host or cells: RPMI2650
# Method: (§1) The synthesized compounds were prepared with a 10 mM or 50 mM raw material solution dissolved in DMSO [dimethyl sulfoxide], and were diluted sequentially and treated. [RPMI2650] and [SNU2972] were cultivated under specific conditions.
# (§2) To evaluate the resolution of PROTAC for BRD4 expressed in cells, cells were dispensed in a concentration of 5 X 10^5 cells/well in a 6-well plate, and the sample was treated for 24 hours. […] Protein expression was normalized based on the expression value of β or GAPDH, and protein expression in each sample was measured as % based on 100% of samples treated with 0.1% DMSO vehicle. Protein expression was quantified using Image J program. Change in protein expression volume by compound treatment (DC50: concentration of compounds where 50% protein expression inhibition is achieved) was calculated using the GraphicPad Prism 8.0 software.
# [2] = system: RPMI2650; assay: Cancer cell antiproliferative activity / cell viability in RPMI2650 cells (72 h treatment); conditions: Homo sapiens
# Method: (§3) The human breast cancer cell line [MDA-MB-231] was cultured in RPMI medium with the addition of 10% fetal bovine serum, penicillin [100U/ml], and streptomycin [[…]]. The synthesized compounds were prepared with a 10 mM or 50 mM raw material solution dissolved in DMSO [dimethyl sulfoxide], and were diluted sequentially and treated. [RPMI2650] and [SNU2972] were cultivated under specific conditions.
# (§4) To observe cell growth inhibition, cells were dispensed in a concentration of 5,000 cells/well in a 96-well plate, and samples prepared at various concentrations were treated for 72 hours. The IC50 value (the concentration of the compound achieving 50% cytostaticism) is the average value of the results of three independent measurements.
# [3] = system: SNU2972; assay: Cancer cell antiproliferative activity / cell viability in SNU2972 cells (72 h treatment); conditions: read-out: BRD4 (IC50)
# Method: as §3, §4
# [4] = system: MDA-MB-231; assay: Cancer cell antiproliferative activity / cell viability in MDA-MB-231 cells (72 h treatment); conditions: Homo sapiens, read-out: BRD4 (IC50)
# Method: as §3, §4
# [5] = target: T2, BRD4 (Homo sapiens, UniProt O60885); assay: BRD4 protein degradation by western blotting in RPMI2650 cells (24 h treatment); parameters: To evaluate the resolution of PROTAC for BRD4 expressed in cells; endogenous in cells; host or cells: RPMI2650
# Method: as §1, §2
# [6] = target: T2, BRD4; assay: BRD4 protein degradation by western blotting in MDA-MB-231 cells (24 h treatment); parameters: To evaluate the resolution of PROTAC for BRD4 expressed in cells; endogenous in cells; host or cells: MDA-MB-231
# [7] = read-out: BRD4-NUT (DC50), RPMI2650
# [8] = RPMI-2650, RPMI2650, read-out: BRD4 (IC50)
# [9] = read-out: BR04 (DC50), RPMI2650
# [10] = RPM12650, read-out: BRD4-NUT (DC50)
# [11] = RPMI-2650, RPM12650, read-out: Cell Viatility (IC50)
# [12] = RPM12650, read-out: BRD4 (DC50)
Compound,"DC50 [1, 7] [nM]","pIC50 [2, 8]",pIC50 [3],pIC50 [4],"DC50 [5, 9] [nM]",DC50 [6] [nM],"DC50 [1, 10] [nM]","pIC50 [2, 11]","DC50 [5, 12] [nM]"
"Cc1sc2c(c1C)C(c1ccc(Cl)cc1)=N[C@@H](CC(=O)N1CCC(CN3CCN(c4cc5c(C)nn(C6CCC(=O)NC6=O)c(=O)c5cc4F)CC3)CC1)c1nnc(C)n1-2 (stereo partly drawn) [ICT-0000953, 3-(6-(4-((1-(2-((S)-4-(4-chlorophenyl)-2,3,9-trimethyl-6H-thieno[3,2-f][1,2,4]triazolo[4,3-a][1,4]diazepine-6-il)acetyl)piperidine-4-il)methyl)piperazine-1-il)-7-fluoro-4-methyl-1-oxopthalazine-2(1H)-yl)piperidine-2,6-dione]",< 100,> 7.00,> 7.00,> 7.00,< 100,< 100,,,
"Cc1sc2c(c1C)C(c1ccc(Cl)cc1)=N[C@@H](CC(=O)N1CCC(CN3CCN(c4cc5cnn(C6CCC(=O)NC6=O)c(=O)c5cc4F)CC3)CC1)c1nnc(C)n1-2 (stereo partly drawn) [ICT-0000971, 3-(6-(4-((1-(2-((S)-4-(4-chlorophenyl)-2,3,9-trimethyl-6H-thieno[3,2-f][1,2,4]triazolo[4,3-a][1,4]diazepine-6-day)acetyl)piperidine-4-il)methyl)piperazine-1-yl)7-fluoro-1-oxopthalazine-2(1H)-yl)piperidine-2,6-dione]",< 100,> 7.00,> 7.00,> 7.00,< 100,< 100,,,
"Cc1sc2c(c1C)C(c1ccc(Cl)cc1)=N[C@@H](CC(=O)N1CCC(CN3CCN(c4cc5c(=O)n(C6CCC(=O)NC6=O)ncc5cc4F)CC3)CC1)c1nnc(C)n1-2 (stereo partly drawn) [ICT-0000972, 3-(7-(4-((1-(2-((S)-4-(4-chlorophenyl)-2,3,9-trimethyl-6H-thieno[3,2-f][1,2,4]triazolo[4,3-a][1,4]diazepine-6-day)acetyl)piperidine-4-il)methyl)piperazine-1-yl)-6-fluoro-1-oxopthalazine-2(1H)-yl)piperidine-2,6-dione]",< 100,6.00 to 7.00,> 7.00,> 7.00,< 100,< 100,,,
"Cc1sc2c(c1C)C(c1ccc(Cl)cc1)=N[C@@H](CC(=O)N1CC(N3CCN(c4ccc5c(=O)n(C6CCC(=O)NC6=O)ncc5c4)CC3)C1)c1nnc(C)n1-2 (stereo partly drawn) [ICT-0000973, 3-(6-(4-(1-(2-((S)-4-(4-chlorophenyl)-2,3,9-trimethyl-6H-thieno[3,2-f][1,2,4]triazolo[4,3-a][1,4]diazepine-6-day)acetyl)azetidine-3-il)piperazine-1-yl)-1-oxopthalazine-2(1H)-yl)piperidine-2,6-dione]",< 100,6.00 to 7.00,6.00 to 7.00,> 7.00,< 100,< 100,,,
"Cc1sc2c(c1C)C(c1ccc(Cl)cc1)=N[C@@H](CC(=O)Nc1ccc(N3CCN(c4ccc5c(=O)n(C6CCC(=O)NC6=O)nc(C)c5c4)CC3)cc1)c1nnc(C)n1-2 (stereo partly drawn) [ICT-0001410, 2-((S)-4-(4-chlorophenyl)-2,3,9-trimethyl-6H-thieno[3,2-f][1,2,4]triazolo[4,3-a][1,4]diazepine-6-yl)-N-(4-(4-(2-(2,6-dioxopiperidin-3-yl)-4-methyl-1-oxo-1,2-dihydroptalazine-6-yl)piperazine-1-yl)phenyl)acetamide]",< 100,> 7.00,,> 7.00,< 100,< 100,,,
"Cc1sc2c(c1C)C(c1ccc(Cl)cc1)=N[C@@H](CC(=O)Nc1ccc(CN3CCN(c4ccc5c(=O)n(C6CCC(=O)NC6=O)nc(C)c5c4)CC3)cc1)c1nnc(C)n1-2 (stereo partly drawn) [ICT-0001423, 2-[(9S)-7-(4-chlorophenyl)-4,5,13-trimethyl-3-thia-1,8,11,12-tetraazatricyclo[8.3.0.0^2,^6]trideca-2(6),4,7,10,12-pentaene-9-yl]-N-[4-({4-[2-(2,6-dioxopiperidin-3-yl)-4-methyl-1-oxo-1,2-dihydroptalazine-6-yl]piperazine-1-yl}methyl)phenyl]acetamide]",< 100,> 7.00,,> 7.00,< 100,< 100,,,
"CC[C@@H]1c2nnc(C)n2-c2cnc(Nc3ccc(C(=O)N4CCN(CCNc5cccc6c(C)nn(C7CCC(=O)NC7=O)c(=O)c56)CC4)cc3OC)nc2N1CC1CCCCC1 (stereo partly drawn) [ICT-0001583, 3-(8-((2-(4-(4-(((R)-5-(cyclohexylmethyl)-4-ethyl-1-methyl-4,5-dihydro-[1,2,4]triazolo[4,3-f]pteridine-7-yl)amino)3-methoxybenzoyl)piperazine-1-yl)ethyl)amino)4-methyl-1-oxopthalazine-2(1H)-yl)piperidine-2,6-dione]",,,,,,,< 100,< 6.00,< 100
"CC[C@@H]1c2nnc(C)n2-c2cnc(Nc3ccc(C(=O)N4CCN(c5cccc6c(C)nn(C7CCC(=O)NC7=O)c(=O)c56)CC4)cc3OC)nc2N1CC1CCCCC1 (stereo partly drawn) [ICT-0001584, 3-(8-(4-(4-(((R)-5-(cyclohexylmethyl)-4-ethyl-1-methyl-4,5-dihydro-[1,2,4]triazolo[4,3-f]pteridine-7-yl)amino)-3-methoxybenzoyl)piperazine-1-yl)-4-methyl-1-oxopthalazine-2(1H)-yl)piperidine-2,6-dione]",,,,,,,< 100,> 7.00,< 100
CC[C@@H]1c2nnc(C)n2-c2cnc(Nc3ccc(C(=O)NC4CCN(C(=O)C5CCN(c6ccc7c(C)nn(C8CCC(=O)NC8=O)c(=O)c7c6)CC5)CC4)cc3OC)nc2N1CC1CCCCC1 (stereo partly shown) [ICT-0001592],,,,,,,< 100,> 7.00,< 100
"CC[C@@H]1c2nnc(C)n2-c2cnc(Nc3ccc(C(=O)N4CCN(CCNc5ccc6c(=O)n(C7CCC(=O)NC7=O)nc(C)c6c5)CC4)cc3OC)nc2N1CC1CCCCC1 (stereo partly drawn) [ICT-0001599, 3-(6-((2-(4-(4-(((R)-5-(cyclohexylmethyl)-4-ethyl-1-methyl-4,5-dihydro-[1,2,4]triazolo[4,3-f]pteridine-7-yl)amino)3-methoxybenzoyl)piperazine-1-yl)ethyl)amino)4-methyl-1-oxopthalazine-2(1H)-yl)piperidine-2,6-dione]",,,,,,,< 100,< 6.00,< 100
"CC[C@@H]1c2nnc(C)n2-c2cnc(Nc3ccc(C(=O)N4CCN(CCNc5ccc6c(C)nn(C7CCC(=O)NC7=O)c(=O)c6c5)CC4)cc3OC)nc2N1CC1CCCCC1 (stereo partly drawn) [ICT-0001600, 3-(7-((2-(4-(4-(((R)-5-(cyclohexylmethyl)-4-ethyl-1-methyl-4,5-dihydro-[1,2,4]triazolo[4,3-f]pteridine-7-yl)amino)3-methoxybenzoyl)piperazine-1-yl)ethyl)amino)4-methyl-1-oxopthalazine-2(1H)-yl)piperidine-2,6-dione]",,,,,,,< 100,> 7.00,< 100
"CC[C@@H]1c2nnc(C)n2-c2cnc(Nc3ccc(C(=O)N4CCN(CCNc5cccc6cnn(C7CCC(=O)NC7=O)c(=O)c56)CC4)cc3OC)nc2N1CC1CCCCC1 (stereo partly drawn) [ICT-0001601, 3-(8-((2-(4-(4-(((R)-5-(cyclohexylmethyl)-4-ethyl-1-methyl-4,5-dihydro-[1,2,4]triazolo[4,3-f]pteridine-7-yl)amino)3-methoxybenzoyl)piperazine-1-il)ethyl)amino)1-oxopthalazine-2(1H)-yl)piperidine-2,6-dione]",,,,,,,< 100,> 7.00,< 100
CC[C@@H]1c2nnc(C)n2-c2cnc(Nc3ccc(C(=O)N4CCN(CCNc5cccc6c(=O)n(C7CCC(=O)NC7=O)ncc56)CC4)cc3OC)nc2N1CC1CCCCC1 (stereo partly shown) [ICT-0001602],,,,,,,100 to 1000,< 6.00,< 100
"CC[C@@H]1c2nnc(C)n2-c2cnc(Nc3ccc(C(=O)N4CCN(CCNc5ccc6c(=O)n(C7CCC(=O)NC7=O)ncc6c5)CC4)cc3OC)nc2N1CC1CCCCC1 (stereo partly drawn) [ICT-0001603, 3-(6-((2-(4-(4-(((R)-5-(cyclohexylmethyl)-4-ethyl-1-methyl-4,5-dihydro-[1,2,4]triazolo[4,3-f]pteridine-7-yl)amino)3-methoxybenzoyl)piperazine-1-yl)ethyl)amino)1-oxopthalazine-2(1H)-yl)piperidine-2,6-dione]",,,,,,,< 100,< 6.00,< 100

# — patent EP4640686A1, “DEGRADER FOR DEGRADING BRD PROTEIN AND PHARMACEUTICAL COMPOSITION CONTAINING SAME” (Innocure Therapeutics, Inc., priority 2022, dated 2024)
